Values of other authors, collected in US20220241275A1, “TARGETED TREATMENT OF CANCERS WITH DYSREGULATED FIBROBLAST GROWTH FACTOR RECEPTOR SIGNALING” (G1 Therapeutics, Inc., priority 2019, published 2022).
Where two headings read alike, the source gives them in different places. Blank lines part the entries; values can stand above or below the compound they belong to.

What was measured:
[1] = tested on: FGFR1-amplified squamous NSCLC and FGFR3-mutant urothelial cancer; details: doses >=100 mg, phase I dose escalation trial
FGFR4 = FGFR4 (Homo sapiens, UniProt P22455)
Sequence of FGFR4 (P22455 22-802): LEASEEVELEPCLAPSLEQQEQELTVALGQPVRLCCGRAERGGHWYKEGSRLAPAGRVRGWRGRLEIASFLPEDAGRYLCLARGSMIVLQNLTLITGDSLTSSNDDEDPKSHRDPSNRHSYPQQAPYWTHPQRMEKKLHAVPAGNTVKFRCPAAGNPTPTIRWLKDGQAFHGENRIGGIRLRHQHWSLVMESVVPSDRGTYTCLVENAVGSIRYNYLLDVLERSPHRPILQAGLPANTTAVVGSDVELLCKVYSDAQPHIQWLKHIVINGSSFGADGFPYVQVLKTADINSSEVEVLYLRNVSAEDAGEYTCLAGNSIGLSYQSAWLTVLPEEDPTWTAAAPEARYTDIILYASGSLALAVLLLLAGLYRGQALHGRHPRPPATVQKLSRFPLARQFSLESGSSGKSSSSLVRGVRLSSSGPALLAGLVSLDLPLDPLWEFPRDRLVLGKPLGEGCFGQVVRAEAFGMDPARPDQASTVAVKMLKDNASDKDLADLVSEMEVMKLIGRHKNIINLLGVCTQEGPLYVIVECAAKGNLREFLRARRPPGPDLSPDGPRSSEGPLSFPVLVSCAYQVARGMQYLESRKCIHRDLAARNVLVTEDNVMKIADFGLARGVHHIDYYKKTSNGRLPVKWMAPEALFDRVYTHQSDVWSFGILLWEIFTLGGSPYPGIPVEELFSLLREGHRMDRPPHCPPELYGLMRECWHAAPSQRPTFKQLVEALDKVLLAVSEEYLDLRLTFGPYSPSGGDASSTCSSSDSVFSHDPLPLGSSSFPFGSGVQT

FGFR3 = FGFR3 (Homo sapiens, UniProt P22607)
Sequence of FGFR3 (P22607 23-806): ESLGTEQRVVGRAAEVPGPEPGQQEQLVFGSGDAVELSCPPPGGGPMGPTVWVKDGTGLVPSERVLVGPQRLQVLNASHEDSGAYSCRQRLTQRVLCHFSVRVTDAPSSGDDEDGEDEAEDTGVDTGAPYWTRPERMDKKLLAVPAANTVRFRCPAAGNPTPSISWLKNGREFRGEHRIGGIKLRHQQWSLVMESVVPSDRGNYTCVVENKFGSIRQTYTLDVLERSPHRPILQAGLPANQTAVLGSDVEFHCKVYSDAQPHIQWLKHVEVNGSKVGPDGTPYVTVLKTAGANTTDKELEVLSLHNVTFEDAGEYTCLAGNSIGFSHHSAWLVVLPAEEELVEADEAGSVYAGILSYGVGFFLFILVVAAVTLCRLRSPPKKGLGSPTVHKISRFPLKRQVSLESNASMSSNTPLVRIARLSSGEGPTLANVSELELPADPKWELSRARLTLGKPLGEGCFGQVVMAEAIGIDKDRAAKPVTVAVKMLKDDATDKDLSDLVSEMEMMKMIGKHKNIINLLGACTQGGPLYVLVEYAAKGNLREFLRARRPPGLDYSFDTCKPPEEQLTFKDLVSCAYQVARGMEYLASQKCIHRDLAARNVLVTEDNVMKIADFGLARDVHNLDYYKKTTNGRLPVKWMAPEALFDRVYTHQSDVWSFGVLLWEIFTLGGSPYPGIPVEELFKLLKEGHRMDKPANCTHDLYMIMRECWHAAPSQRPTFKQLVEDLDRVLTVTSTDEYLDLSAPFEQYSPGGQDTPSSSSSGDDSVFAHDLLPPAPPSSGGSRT

FGFR1 = FGFR1 (Homo sapiens, UniProt P11362)
Sequence of FGFR1 (P11362 22-822): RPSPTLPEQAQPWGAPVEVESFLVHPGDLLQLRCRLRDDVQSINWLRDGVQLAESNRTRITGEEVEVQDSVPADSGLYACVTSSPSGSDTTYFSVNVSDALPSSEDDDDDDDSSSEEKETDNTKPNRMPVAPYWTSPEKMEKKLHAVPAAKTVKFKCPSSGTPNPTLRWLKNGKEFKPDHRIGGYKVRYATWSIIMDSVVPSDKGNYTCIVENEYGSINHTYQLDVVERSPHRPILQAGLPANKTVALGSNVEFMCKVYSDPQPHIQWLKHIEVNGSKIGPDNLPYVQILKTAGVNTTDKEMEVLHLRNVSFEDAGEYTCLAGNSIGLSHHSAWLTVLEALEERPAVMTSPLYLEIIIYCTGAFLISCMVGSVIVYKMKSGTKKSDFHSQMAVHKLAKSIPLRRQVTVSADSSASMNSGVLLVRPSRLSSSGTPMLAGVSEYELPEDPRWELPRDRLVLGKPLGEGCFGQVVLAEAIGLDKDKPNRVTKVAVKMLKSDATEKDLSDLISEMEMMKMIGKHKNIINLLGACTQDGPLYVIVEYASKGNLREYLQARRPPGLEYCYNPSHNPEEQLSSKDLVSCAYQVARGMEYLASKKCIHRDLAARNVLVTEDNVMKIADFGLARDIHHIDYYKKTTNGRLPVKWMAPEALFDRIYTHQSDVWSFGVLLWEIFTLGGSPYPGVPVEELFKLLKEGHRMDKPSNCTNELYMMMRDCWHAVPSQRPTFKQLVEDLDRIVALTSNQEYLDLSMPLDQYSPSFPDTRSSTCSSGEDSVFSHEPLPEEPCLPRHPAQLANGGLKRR

FGFR2 = FGFR2 (Homo sapiens, UniProt P21802)
Sequence of FGFR2 (P21802 22-821): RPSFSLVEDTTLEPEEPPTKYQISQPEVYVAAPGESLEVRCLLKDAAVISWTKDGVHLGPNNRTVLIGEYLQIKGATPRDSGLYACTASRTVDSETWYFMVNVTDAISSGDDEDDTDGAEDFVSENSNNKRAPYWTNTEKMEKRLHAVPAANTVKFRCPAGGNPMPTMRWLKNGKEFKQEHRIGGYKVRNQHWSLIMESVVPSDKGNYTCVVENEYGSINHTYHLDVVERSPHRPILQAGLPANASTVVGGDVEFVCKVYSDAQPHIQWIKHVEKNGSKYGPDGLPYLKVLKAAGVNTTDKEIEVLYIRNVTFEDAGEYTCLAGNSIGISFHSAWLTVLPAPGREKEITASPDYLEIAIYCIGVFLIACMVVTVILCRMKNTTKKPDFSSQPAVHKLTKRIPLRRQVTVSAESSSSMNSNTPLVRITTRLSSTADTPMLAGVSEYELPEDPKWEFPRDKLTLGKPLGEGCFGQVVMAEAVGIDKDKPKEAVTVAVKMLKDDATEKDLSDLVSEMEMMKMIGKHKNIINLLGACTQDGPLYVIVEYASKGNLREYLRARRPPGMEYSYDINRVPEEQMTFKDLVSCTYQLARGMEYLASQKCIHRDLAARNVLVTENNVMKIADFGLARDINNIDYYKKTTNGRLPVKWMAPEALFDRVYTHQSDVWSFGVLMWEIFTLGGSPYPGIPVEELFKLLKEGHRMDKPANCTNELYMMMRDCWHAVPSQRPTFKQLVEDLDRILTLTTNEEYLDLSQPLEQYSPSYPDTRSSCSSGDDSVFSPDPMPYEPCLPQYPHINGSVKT

VEGFR2 = VEGFR2 (Homo sapiens, UniProt P35968); details: cell-free assays
Sequence of VEGFR2 (P35968 20-1356, species assumed): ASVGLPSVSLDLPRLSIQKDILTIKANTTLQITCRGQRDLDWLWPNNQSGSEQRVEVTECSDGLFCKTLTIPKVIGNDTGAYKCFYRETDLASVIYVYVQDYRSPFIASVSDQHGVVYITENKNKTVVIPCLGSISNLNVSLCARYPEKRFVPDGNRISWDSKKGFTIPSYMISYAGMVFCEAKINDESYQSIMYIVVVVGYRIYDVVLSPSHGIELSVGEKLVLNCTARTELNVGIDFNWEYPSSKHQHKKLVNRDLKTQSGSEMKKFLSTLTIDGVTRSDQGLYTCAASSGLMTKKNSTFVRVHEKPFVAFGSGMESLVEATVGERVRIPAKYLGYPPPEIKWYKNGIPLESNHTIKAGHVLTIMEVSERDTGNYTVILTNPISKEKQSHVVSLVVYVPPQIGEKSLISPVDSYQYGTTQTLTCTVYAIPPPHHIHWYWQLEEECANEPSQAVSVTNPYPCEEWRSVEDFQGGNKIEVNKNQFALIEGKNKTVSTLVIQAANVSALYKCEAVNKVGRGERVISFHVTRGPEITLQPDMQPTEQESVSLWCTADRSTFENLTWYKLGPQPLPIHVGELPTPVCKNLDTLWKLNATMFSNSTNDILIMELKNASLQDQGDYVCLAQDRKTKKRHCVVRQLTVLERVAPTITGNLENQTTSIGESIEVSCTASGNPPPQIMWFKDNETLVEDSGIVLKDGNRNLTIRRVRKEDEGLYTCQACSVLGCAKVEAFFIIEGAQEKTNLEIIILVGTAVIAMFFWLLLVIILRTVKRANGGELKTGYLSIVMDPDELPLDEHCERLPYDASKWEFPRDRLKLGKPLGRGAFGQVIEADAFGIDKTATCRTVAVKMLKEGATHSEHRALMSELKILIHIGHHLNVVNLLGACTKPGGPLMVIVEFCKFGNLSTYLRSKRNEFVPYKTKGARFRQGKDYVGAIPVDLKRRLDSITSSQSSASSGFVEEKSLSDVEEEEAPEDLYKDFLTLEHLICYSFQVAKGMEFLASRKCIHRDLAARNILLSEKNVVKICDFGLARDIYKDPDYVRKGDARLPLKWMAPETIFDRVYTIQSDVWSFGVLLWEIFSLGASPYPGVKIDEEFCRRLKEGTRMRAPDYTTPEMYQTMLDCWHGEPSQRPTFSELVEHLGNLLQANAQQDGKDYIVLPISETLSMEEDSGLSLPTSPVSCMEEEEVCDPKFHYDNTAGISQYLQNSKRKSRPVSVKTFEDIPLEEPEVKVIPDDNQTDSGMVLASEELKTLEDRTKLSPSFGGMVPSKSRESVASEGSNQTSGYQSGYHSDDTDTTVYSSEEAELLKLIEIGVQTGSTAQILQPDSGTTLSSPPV

Compound: CCN1CCN(c2ccc(Nc3cc(N(C)C(=O)Nc4c(Cl)c(OC)cc(OC)c4Cl)ncn3)cc2)CC1 [infigratinib]
- confirmed partial responses [1]: six

- IC50 (FGFR4; read-out: IC50 for FGFR4): 45.3 nM
- IC50 (FGFR3): 27 nM
- IC50 (FGFR1): 3.09 nM
- IC50 (FGFR2): 4.3 nM
Compound: C=CC(=O)Nc1ccc(CN2C(=O)N(c3cc(OC)cc(OC)c3)Cc3cnc(Nc4ccc(N5CCN(C)CC5)cc4)nc32)cc1 [FIIN-2]

- IC50 (FGFR4; read-out: IC50, FGFR4): 320 nM
Compound: CNC(=O)c1cccc2cc(Oc3ccnc(NC(=O)c4ccc(N5CCN(CCO)CC5)cc4)c3)ccc12 [SOMCL-085]

- IC50 (VEGFR2): 100 to 200 nM
Compound: CCN(CC)CCCCNc1ncc2cc(-c3cc(OC)cc(OC)c3)c(NC(=O)NC(C)(C)C)nc2n1 [PD173074]
